From patent US10857155B2, “Compounds targeting proteins, compositions, methods, and uses thereof” (BioTheryX, Inc., priority 2017, dated 2020)
pIC50: −log10 of the molar value.

Experiments:
Assay type in all cases: cell-based
IL-2 = IL-2 in PBMCs on anti-human CD3 (OKT3) coated plates, Mesoscale analysis; conditions: PBMC, 24 h, relative to DMSO control, read-out: Fold Change IL-2
Procedure: For the IL-2 analysis, 96 well plates were precoated with 1 μg/mL anti-human CD3 antibody (OKT3, eBioscience Inc., San Diego, Calif.). After washing with PBS, compounds were added (50 μL/well) followed by PBMCs diluted at 3-4 million cells/mL (150 μL/well). Plates were incubated for 24 h and the supernatants collected for Mesoscale IL-2 analysis.
(§1) Compound activity is measured as fold difference from the DMSO control. Compounds 1, 2, and 3 each reduced expression of IL-1-b in LPS-stimulated PBMCs by over 80% at 1 uM, relative to a just under 80% reduction with pomalidomide at 10 μM (FIG. 2).

GSPT1 = molecular target: T1, GSPT1 (Homo sapiens, UniProt P15170); test: Western blot analysis of GSPT1 protein levels in Jurkat cells; conditions: DMSO = 100.00; for GSPT1 protein level (% of DMSO control) at 0.1 µM: 100 nM compound; for GSPT1 protein level (% of DMSO control) at 1 µM: 1 uM compound
T1 construct: Whole cell extract was prepared with RIPA buffer according to manufacturer's protocol; endogenous in cells; host or cells: Jurkat cells
T1 sequence (P15170 whole entry): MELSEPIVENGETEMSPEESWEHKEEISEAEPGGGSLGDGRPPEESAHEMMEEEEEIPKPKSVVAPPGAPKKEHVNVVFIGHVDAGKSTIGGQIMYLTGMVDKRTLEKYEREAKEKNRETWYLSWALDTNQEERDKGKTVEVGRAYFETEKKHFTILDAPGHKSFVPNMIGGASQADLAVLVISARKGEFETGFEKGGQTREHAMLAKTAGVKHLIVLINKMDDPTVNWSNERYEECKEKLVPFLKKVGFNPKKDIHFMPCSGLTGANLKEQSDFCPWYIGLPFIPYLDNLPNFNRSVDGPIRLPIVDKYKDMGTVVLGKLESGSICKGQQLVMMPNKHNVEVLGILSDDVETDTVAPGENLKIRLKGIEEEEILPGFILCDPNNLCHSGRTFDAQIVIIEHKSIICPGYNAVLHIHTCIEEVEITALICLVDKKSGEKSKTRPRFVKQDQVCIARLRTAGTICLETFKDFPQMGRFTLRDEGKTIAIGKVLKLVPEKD
Procedure: FIG. 1 represents the activity against CK1α, ikaros, and GPST1 in Jurkat cells, plated in 96 well plates. Cells were pretreated with compounds for 4 h and then lysed and protein levels measure via Western blots. The negative control wells were treated with DMSO. Cells were treated with the indicated compound at the indicated concentration. Compound activity is measured as a decrease in GSPT1 protein levels.
Western Blot Protocol: Cell lines were grown in RPMI 1640 supplemented with streptomycin, penicillin and 10% fetal bovine serum.
Jurkat cells were cultured at approximately 10^6 cells per mL, DMSO or the indicated compound was added to the cells and allowed to incubate for 6-8 h. Whole cell extract was prepared with RIPA buffer according to manufacturer's protocol (Pierce (Dallas, Tex.)). Briefly, ˜2×10^6 cells were washed once in PBS, the cell pellet was resuspended in RIPA buffer and allowed to incubate for 15 min on ice. Cell debris was removed by centrifugation and the cleared whole cell lysate was transferred to a new tube for further analysis.
For western blot analysis, whole cell extracts were separated on 4-12% SDS-polyacrylamide gels, transferred to nitrocellulose and probed with the indicated primary antibodies. Membranes were subsequently washed and probed with the appropriate horseradish peroxidase (HRP)-conjugated secondary antibody. Membranes were subsequently washed and probed with the appropriate IRDye secondary antibodies (LI-COR). The signal was detected using the Odyssey Imaging System (LI-COR).

IL-6 = IL-6 in LPS-induced PBMCs / CD14+ monocytes, Meso Scale assay
Procedure: FIG. 3 represents the activity against IL-6 in CD14, monocytes, plated in 96 well plates and pretreated with Compounds 1, 2, or 3, or pomalidomide, for 1 h and then induced with 100 ng/mL LPS for 18-24 h. Cytokines were measured according to MesoScale protocol. Negative control wells were treated with DMSO. Cells were treated with compound (at the indicated concentrations) or 10 μM pomalidomide. Compound activity was measured as a percentage of LPS-induced activity.
(§2) Either frozen primary blood mononuclear cells (PBMCs) or frozen CD14+ mobilized peripheral blood monocytes were purchased from AllCells (PB003F, Normal Peripheral Blood MNC (Alameda, Calif.)). Cells were quick thawed, washed 1-time with RPMI-1640 (10% FBS/1% Pen-Strep) and plated in 96 well plates at 200,000 cells per well. Cells were pretreated with DMSO only, pomalidomide or the indicated compounds for 1 h and then induced with 100 ng/mL lipopolysaccharide (LPS) for 18-24 h. The supernatant was analyzed for IL-1 beta, IL-6, and TNF-alpha, using Meso Scale assay according to manufacturer's protocol. The negative control wells were treated with DMSO.
as §1

IL-1β = test: IL-1 beta in LPS-induced PBMCs / CD14+ monocytes, Meso Scale assay
Procedure: FIG. 2 represents the activity against IL-1-beta in CD14 monocytes, plated in 96 well plates and pretreated with Compounds 1, 2, or 3, or pomalidomide, for 1 h and then induced with 100 ng/mL LPS for 18-24 h. Cytokines were measured according to MesoScale protocol. Negative control wells were treated with DMSO. Compound activity was measured as a percentage of LPS-induced activity.
as §2, §1

TNF-α = test: TNF-alpha in LPS-induced PBMCs / CD14+ monocytes, Meso Scale assay
Procedure: FIG. 4 represents the activity against TNF-alpha in CD14, monocytes, plated in 96 well plates and pretreated with Compounds 1, 2, or 3, or pomalidomide, for 1 h and then induced with 100 ng/mL LPS for 18-24 h. Cytokines were measured according to MesoScale protocol. The negative control wells were treated with DMSO. Cells were treated with compound (at the indicated concentrations) or 10 μM pomalidomide. Compound activity was measured as a percentage of LPS-induced activity.
as §2, §1

H1048 cells = test: Cell viability assay (CellTiter-Glo), H1048 cells; conditions: Homo sapiens, NCI-H1048, 72 h, 3 days; for viability at 1 µM: H1048, 1 μM; for viability at 10 µM: H1048, 10 μM
Procedure: (§3) Molm-13 cells were cultivated in RPMI-1640 (10% FBS/1% pen-strep) and were plated in white walled 96-well plates at 20,000 cells/well. H1048 cells were cultured in DMEM:F12 media supplemented with 5% fetal bovine serum, insulin, transferrin, sodium selenite, hydrocortisone, estradiol, penicillin and streptomycin, and were plated in white walled 96-well plates at 20,000 cells/well.
(§4) Cells were treated with compound at the indicated concentration or DMSO (control) and the cultures were incubated for 3 days at 37° C. and 5% CO2. Following the incubation period, 100 μL of CellTiterGlow (CTG) reagent (CellTiter-Glo® Luminescent Cell Viability Assay, Promega (Madison, Wis.)) was added to each well. Following a 10 min incubation with shaking, luminescence was measured using a Victor Wallac Luminometer.

Molm-13 cells = test: Cell viability assay (CellTiter-Glo), Molm-13 cells; conditions: for pIC50 / effect on cell viability: Molm-13 cells; for pIC50: approximate; for effect on cell viability: 1 μM (FIG. 5); for viability at 10 µM: MOLM-13, 10 μM; for viability at 1 µM: MOLM-13, 1 μM
Procedure: FIG. 5 represents antiproliferative activity in Molm-13 cells. The cells were incubated with Compound 1, 2, or 3 (at the indicated concentration), DMSO, or pomalidomide. Compound activity was measured based on the signal from remaining viable cells.
as §3, §4

SMILES | fold induction at 0.1 µM (IL-2) | GSPT1 protein level (% of DMSO control) at 0.1 µM (GSPT1) [%] | GSPT1 protein level (% of DMSO control) at 1 µM (GSPT1) [%] | inhibition at 0.1 µM (IL-6) [%] | inhibition at 0.1 µM (IL-1β) [%] | inhibition at 0.1 µM (TNF-α) [%] | viability at 1 µM (H1048 cells) [%] | viability at 10 µM (H1048 cells) [%] | viability at 0.4 µM (Molm-13 cells; Homo sapiens, 72 h, MOLM-13, 0.4 μM, 3 days) [%] | pIC50 (Molm-13 cells; Homo sapiens) | effect on cell viability (Molm-13 cells) | viability at 10 µM (Molm-13 cells; Homo sapiens, 72 h, 3 days) [%] | fold induction at 1 µM (IL-2) | inhibition at 1 µM (IL-6) [%] | inhibition at 1 µM (IL-1β) [%] | inhibition at 1 µM (TNF-α) [%] | viability at 0.7 µM (Molm-13 cells; Homo sapiens, 72 h, MOLM-13, 0.7 μM, 3 days) [%] | viability at 1 µM (Molm-13 cells; Homo sapiens, 72 h, 3 days) [%] | viability at 0.5 µM (Molm-13 cells; Homo sapiens, 72 h, MOLM-13, 0.5 μM, 3 days) [%] | viability at 0.6 µM (Molm-13 cells; Homo sapiens, 72 h, MOLM-13, 0.6 μM, 3 days) [%]
Cc1ccc(NC(=O)NCc2ccc3c(c2)CN(C2CCCC(=O)NC2=O)C3=O)cc1 (stereo not shown) [Compound 2] | 1.4 | 134 | 23 | 51 | 78 | 79 | 28.3 | 4.93 | 50 | ~6.10 | reduced cell viability |  |  |  |  |  |  |  |  | 
O=C(Cc1cccc(CN2CCOCC2)c1)NCc1ccc2c(c1)CN([C@H]1CCCC(=O)NC1=O)C2=O [Compound 14, (S)—N-((2-(2,7-dioxoazepan-3-yl)-1-oxoisoindolin-5-yl)methyl)-2-(3-(morpholinomethyl)phenyl)acetamide] | 0.9 | 145 | 82.8 | 0 | 0 | 0 | 101 | 56.2 |  |  |  | 28 |  |  |  |  |  |  |  | 
O=C1CCC[C@H](N2Cc3cc(CNC(=O)Nc4ccc(F)c(Cl)c4)ccc3C2=O)C(=O)N1 [Compound 6, (S)-1-(3-chloro-4-fluorophenyl)-3-((2-(2,7-dioxoazepan-3-yl)-1-oxoisoindolin-5-yl)methyl) urea] |  | 113 | 37.9 |  |  |  | 45.7 | 5.42 |  |  |  |  | 1.3 | 77 | 64 | 65 | 50 |  |  | 
Cc1ccc(CNC(=O)NCc2cccc3c2CN([C@H]2CCCC(=O)NC2=O)C3=O)cc1Cl [Compound 20, (S)-1-(3-chloro-4-methylbenzyl)-3-((2-(2,7-dioxoazepan-3-yl)-1-oxoisoindolin-4-yl)methyl)urea] | 1.1 | 126 | 160 | 7 | 12 | 11 | 98.5 | 96.2 |  |  |  | 23 |  |  |  |  |  |  |  | 
Cc1ccc(NC(=S)NCc2ccc3c(c2)CN([C@H]2CCCC(=O)NC2=O)C3=O)cc1Cl [Compound 26, (S)-1-(3-chloro-4-methylphenyl)-3-((2-(2,7-dioxoazepan-3-yl)-1-oxoisoindolin-5-yl)methyl)thiourea] | 0.8 | 61.6 | 20.8 | 0 | 1 | 3 | 46.4 | 4.54 |  |  |  |  |  |  |  |  |  | 79 |  | 
Cc1ccc(CNC(=O)NCc2ccc3c(c2)CN([C@H]2CCCC(=O)NC2=O)C3=O)cc1Cl [Compound 18, (S)-1-(3-chloro-4-methylbenzyl)-3-((2-(2,7-dioxoazepan-3-yl)-1-oxoisoindolin-5-yl)methyl)urea] | 1.5 | 69.7 | 20.2 | 41 | 53 | 48 | 14.2 | 4.28 |  |  |  |  |  |  |  |  |  |  | 68 | 
Cc1ccc(CC(=O)NCc2ccc3c(c2)CN([C@H]2CCCC(=O)NC2=O)C3=O)cc1Cl [Compound 7, (S)-2-(3-chloro-4-methylphenyl)-N-((2-(2,7-dioxoazepan-3-yl)-1-oxoisoindolin-5-yl)methyl)acetamide] |  | 83.3 | 18.5 |  |  |  | 44.1 | 7.25 |  |  |  |  | 1 | 73 | 56 | 59 |  | 70 |  | 
O=C1CCCC(N2Cc3cc(CNC(=O)Nc4cccc(Cl)c4)ccc3C2=O)C(=O)N1 (stereo not shown) [Compound 3] | 1.4 | 95.5 | 46.8 | 27 | 59 | 59 | 47.1 | 6.25 |  | ~6.00 | reduced cell viability |  |  |  |  |  |  |  |  | 50
